From ChEMBL document CHEMBL1255508, “Neopetrosiamine A, biologically active bis-piperidine alkaloid from the Caribbean sea sponge Neopetrosia proxima” (Bioorg Med Chem Lett, 2010) come the findings set out here.

One assay has as its system Malme-3M. Nature of the assay: […] activity against human MALME-3M cells. Type of assay: functional, cell-based.
Another assay deals with Plasmodium falciparum. Put plainly: Antiplasmodial activity against Plasmodium falciparum. The assay is classed as functional, organism-based.
In assay [1] the test system is Mycobacterium tuberculosis. Nature of the assay: Antimycobacterial activity against Mycobacterium tuberculosis H37Rv by microplate alamar blue assay. The assay is classed as functional.
In the next assay the test system is Vero. Nature of the assay: Cytotoxicity against african green monkey Vero cells. Type of assay: cell-based. The note with it: Chlorocebus sabaeus.
For a further assay, the system named is CCRF-CEM. Nature of the assay: […] activity against human CCRF-CEM cells. Type of assay: functional, cell-based.
In the next assay the test system is MCF7. Nature of the assay: […] activity against human MCF7 cells. The assay is classed as functional, cell-based.

In brackets after ≈: the same amount, converted by molar mass.

For orientation: IC50 means the concentration that inhibits the measured activity by half. Usually MIC stands for the least concentration at which growth counts as inhibited. Take `C1=C\CCCCN2CC[C@@H]3[C@@H](CCCC/C=C\CCCCN4C[C@H](CCCC/1)C[C@H]3C4)C2` [NEOPETROSIAMINE A]: the IC50 amounted to 1500 nM in the assay with Malme-3M; 2300 nM in the assay with Plasmodium falciparum; 42.4 µg/mL (≈ 96.2 µM) in the assay with Vero; 2000 nM with CCRF-CEM; 3500 nM in the assay on MCF7. This compound showed an MIC in assay [1] of 7.5 µg/mL (≈ 17 µM).
